From patent publication US20130116241A1, “NOVEL INHIBITOR COMPOUNDS OF PHOSPHODIESTERASE TYPE 10A” (AbbVie Inc., priority 2011, published 2013) come the findings set out here.

pIC50: −log10 of the molar value. Structures can show the parent of a compound that is named as a salt. Some results are limits rather than exact numbers.

human PDE10A, sequence (Q9Y233 290-1055 limits assumed): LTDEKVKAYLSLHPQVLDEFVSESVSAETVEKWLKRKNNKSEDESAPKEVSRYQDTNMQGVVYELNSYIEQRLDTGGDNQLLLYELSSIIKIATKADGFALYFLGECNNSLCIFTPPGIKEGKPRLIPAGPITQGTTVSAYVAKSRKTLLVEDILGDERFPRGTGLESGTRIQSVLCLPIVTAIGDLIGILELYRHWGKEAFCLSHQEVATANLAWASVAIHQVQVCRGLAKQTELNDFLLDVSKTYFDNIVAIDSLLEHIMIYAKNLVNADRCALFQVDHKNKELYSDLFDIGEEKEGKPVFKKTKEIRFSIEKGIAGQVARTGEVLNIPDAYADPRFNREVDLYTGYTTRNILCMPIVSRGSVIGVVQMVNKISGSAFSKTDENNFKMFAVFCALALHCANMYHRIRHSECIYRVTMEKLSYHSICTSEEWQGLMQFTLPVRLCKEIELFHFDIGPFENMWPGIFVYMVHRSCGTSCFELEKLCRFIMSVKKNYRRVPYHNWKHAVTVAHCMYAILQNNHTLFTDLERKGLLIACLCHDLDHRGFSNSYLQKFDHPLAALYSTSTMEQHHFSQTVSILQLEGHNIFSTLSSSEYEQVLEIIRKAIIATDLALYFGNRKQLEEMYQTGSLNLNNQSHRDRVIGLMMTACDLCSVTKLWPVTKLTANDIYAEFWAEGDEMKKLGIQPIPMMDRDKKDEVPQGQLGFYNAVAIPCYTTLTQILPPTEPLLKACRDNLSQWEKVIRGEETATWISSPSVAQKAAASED

The assay addresses human PDE10A (UniProt Q9Y233). Put plainly: Measurement of PDE activity (recombinant enzyme, HTRF cAMP kit). The note with it: Table 1, substrate 20 nM for PDE10, 60 minutes at 29 C, read-out: IC50. The class given is biochemical. The essentials:
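HTRF detection of cAMP left after hydrolysis, expressed as percent of uninhibited control to derive IC50. Reaction: serially diluted inhibitor mixed with recombinant enzyme, started with 20 nM cAMP, 60 min at 29 °C in Tris-HCl pH 7.5 buffer containing MgCl2 and BSA.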
A general note: TR-FRET usually uses a lanthanide donor and a delayed reading to cut background.
For orientation: pIC50 means the IC50 on a negative log10 scale, so that one unit is a factor of ten. In the case of `CC(C)(C)OC(=O)N1CC=C(c2cccc3cnn(CCc4cn5ccccc5n4)c(=O)c23)CC1` [Example 191, tert-Butyl 4-{3-[2-(imidazo[1,2-a]pyridin-2-yl)ethyl]-4-oxo-3,4-dihydrophthalazin-5-yl}-3,6-dihydropyridine-1(2H)-carboxylate], the pIC50 was 6.30 to 6.70.

As to `O=c1c2c(-c3ccncc3)cccc2c(Br)nn1CCc1cn2ccccc2n1` [compound 370, 4-bromo-2-[2-(imidazo[1,2-a]pyridin-2-yl)ethyl]-8-(pyridin-4-yl)phthalazin-1(2H)-one], the pIC50 is above 7.00. The figure for `O=c1c2cccc(-c3cncnc3)c2ccn1C1CC1c1ccc2ccccc2n1` (stereo not drawn) [compound 296] is 6.70 to 7.00.

With `O=c1c2c(-c3ccoc3)csc2cnn1CCc1ccc2ccccc2n1` [Example 41, 3-(furan-3-yl)-5-[2-(quinolin-2-yl)ethyl]thieno[2,3-d]pyridazin-4(5H)-one], the pIC50 is above 7.00.

Regarding `O=c1c2c(-c3ccncc3)cccc2ccn1C1CC1c1ccc2cc(F)ccc2n1` (stereo not drawn) [Example 274], the pIC50 was above 7.00. Next, “8-(2-Fluoro-5-methoxyphenyl)-2-[2-(quinolin-2-yl)ethyl]phthalazin-1(2H)-one [Example 164]”: 6.70 to 7.00; `O=c1c2c(-c3ccccc3F)csc2cnn1CCc1ccc2ccccc2n1` [Example 20, 3-(2-fluorophenyl)-5-[2-(quinolin-2-yl)ethyl]thieno[2,3-d]pyridazin-4(5H)-one]: above 7.00. For `CC(C)c1ccc(-c2csc3cnn(CCc4ccc5ccccc5n4)c(=O)c23)cc1` [Example 8, 3-[4-(propan-2-yl)phenyl]-5-[2-(quinolin-2-yl)ethyl]thieno[2,3-d]pyridazin-4(5H)-one], the pIC50 is above 7.00.

For `CC(=O)N1CCCC(Nc2cccc3cnn(CCc4cn5ccccc5n4)c(=O)c23)C1` (stereo not drawn) [compound 389, hydrochloride], the pIC50 was 6.70 to 7.00. As for `O=c1c2cccc(N3CCOCC3)c2cnn1CCc1cn2ccccc2n1` [Example 198, 2-[2-(Imidazo[1,2-a]pyridin-2-yl)ethyl]-5-(morpholin-4-yl)phthalazin-1(2H)-one hydrochloride], the pIC50 was above 7.00. The figure for `COc1cccc(-c2csc3cnn(CCc4ccc5ccccc5n4)c(=O)c23)c1F` [Example 79, 3-(2-fluoro-3-methoxyphenyl)-5-[2-(quinolin-2-yl)ethyl]thieno[2,3-d]pyridazin-4(5H)-one] is 6.30 to 6.70; for `O=c1c2c(-c3ccnc(C(F)(F)F)c3)cccc2cnn1CCc1cn2ccccc2n1` [compound 348, 2-[2-(imidazo[1,2-a]pyridin-2-yl)ethyl]-8-[2-(trifluoromethyl)pyridin-4-yl]phthalazin-1(2H)-one] it is 6.70 to 7.00; for `O=c1c2c(-c3ccncc3)csc2ccn1C1CC1c1ccc2ccccc2n1` (single isomer, unassigned) [293b] it is above 7.00. Next, `O=c1c2c(NC3COC3)cccc2ccn1[C@@H]1C[C@H]1c1ccc2ccccc2n1` (racemic) [Example 235, anti 8-(Oxetan-3-ylamino)-2-(2-(quinolin-2-yl)cyclopropyl)isoquinolin-1(2H)-one]: above 7.00; `O=c1c2c(-c3ccncc3)cccc2ccn1C1CC1c1ccc2ccccc2n1` (stereo not drawn) [Example 256, syn 8-(pyridin-4-yl)-2-(2-(quinolin-2-yl)cyclopropyl)isoquinolin-1(2H)-one hydrochloride]: above 7.00; `O=c1c2c(-c3ccncc3)coc2ccn1CCc1nc2ccccc2[nH]1` [Example 229, 5-(2-(1H-Benzo[d]imidazol-2-yl)ethyl)-3-(pyridin-4-yl)furo[3,2-c]pyridin-4(5H)-one hydrochloride]: above 7.00. The figure for `Cn1ccc(-c2cccc3cnn(CCc4cn5ccccc5n4)c(=O)c23)n1` [Example 169, 2-[2-(Imidazo[1,2-a]pyridin-2-yl)ethyl]-8-(1-methyl-1H-pyrazol-3-yl)phthalazin-1(2H)-one] is 6.30 to 6.70; for `COc1ncccc1-c1cccc2cnn(CCc3ccc4ccccc4n3)c(=O)c12` [Example 125, 8-(2-Methoxypyridin-3-yl)-2-[2-(quinolin-2-yl)ethyl]phthalazin-1(2H)-one] it is 6.30 to 6.70. Take `O=c1c2c(N3CC[C@@H](O)C3)cccc2ccn1C1CC1c1ccc2ccccc2n1` (stereo partly drawn) [Example 250, anti 8-((3R)-3-hydroxypyrrolidin-1-yl)-2-(2-(quinolin-2-yl)cyclopropyl)isoquinolin-1(2H)-one (2E)-but-2-enedioate]: the pIC50 is 6.70 to 7.00. Next, `O=c1c2c(-c3cncnc3)csc2ccn1CCc1ccc2ccccc2n1` [Example 206]: above 7.00; `O=c1c2c(N3CCOCC3)cccc2ccn1C1CC1c1ccc2ccccc2n1` (single isomer, unassigned) [Example 246a, anti (+) 8-morpholino-2-(2-(quinolin-2-yl)cyclopropyl)isoquinolin-1(2H)-one]: above 7.00; `COc1ccc(-c2cccc3ccn(C4CC4c4ccc5ccccc5n4)c(=O)c23)cc1` (single isomer, unassigned) [Example 270, anti (−) 8-(4-methoxyphenyl)-2-(2-(quinolin-2-yl)cyclopropyl)isoquinolin-1(2H)-one]: above 7.00. With `COc1cc(F)cc(-c2cccc3cnn(CCc4ccc5ccccc5n4)c(=O)c23)c1` [Example 157, 8-(3-Fluoro-5-methoxyphenyl)-2-[2-(quinolin-2-yl)ethyl]phthalazin-1(2H)-one], the pIC50 is 6.30 to 6.70. For the compound `O=c1c2c(-c3cccnc3)csc2ccn1C1CC1c1ccc2ccccc2n1` (stereo not drawn) [compound 289], the pIC50 is above 7.00. Take `O=c1c2c(NC3CCCOC3)cccc2cnn1CCc1cn2ccccc2n1` (stereo not drawn) [compound 392, hydrochloride]: the pIC50 was above 7.00. In the case of `O=c1c2c(C3CCNCC3)cccc2cnn1CCc1cn2c(n1)CCCC2` [compound 365, hydrochloride], the pIC50 is above 7.00.

In the case of `O=c1c2c(-c3ccnc(F)c3)cccc2ccn1C1CC1c1ccc2ccccc2n1` (single isomer, unassigned) [Example 238, anti (−) 8-(2-fluoropyridin-4-yl)-2-(2-(quinolin-2-yl)cyclopropyl)isoquinolin-1(2H)-one], the pIC50 is above 7.00.

As to `O=c1c2c(-c3ccoc3)cccc2cnn1CCc1cn2ccccc2n1` [Example 170, 8-(Furan-3-yl)-2-[2-(Imidazo[1,2-a]pyridin-2-yl)ethyl]phthalazin-1(2H)-one], the pIC50 is above 7.00. For `COc1ccc(-c2csc3cnn(CCc4ccc5ccccc5n4)c(=O)c23)cc1` [Example 11, 3-(4-methoxyphenyl)-5-[2-(quinolin-2-yl)ethyl]thieno[2,3-d]pyridazin-4(5H)-one], the pIC50 was 6.70 to 7.00. Next, `COc1cncc(-c2cccc3cnn(CCc4ccc5ccccc5n4)c(=O)c23)c1` [Example 136, 8-(5-Methoxypyridin-3-yl)-2-[2-(quinolin-2-yl)ethyl]phthalazin-1(2H)-one]: above 7.00; `O=c1c2cccc(-c3ccncc3)c2cnn1CCc1cn2ccccc2n1` [compound 401, 2-[2-(imidazo[1,2-a]pyridin-2-yl)ethyl]-5-(pyridin-4-yl)phthalazin-1(2H)-one]: above 7.00. On to `O=c1c2c(-c3ccncc3)csc2cnn1CCc1ccc2ncccc2n1` [compound 312, 5-[2-(1,5-naphthyridin-2-yl)ethyl]-3-(pyridin-4-yl)thieno[2,3-d]pyridazin-4(5H)-one], for which the pIC50 was above 7.00.

Turning to `O=c1c2c(-c3cc[nH]n3)cccc2cnn1CCc1cn2ccccc2n1` [compound 328, 2-[2-(imidazo[1,2-a]pyridin-2-yl)ethyl]-8-(1H-pyrazol-3-yl)phthalazin-1(2H)-one], the pIC50 is 6.30 to 6.70. For `O=c1c2c(N3CC4(COC4)C3)cccc2cnn1CCc1cn2ccccc2n1` [compound 334, 2-[2-(imidazo[1,2-a]pyridin-2-yl)ethyl]-8-(2-oxa-6-azaspiro[3.3]hept-6-yl)phthalazin-1(2H)-one], the pIC50 was 6.70 to 7.00. For the compound `O=c1c2cccc(-c3ccncc3)c2ccn1C1CC1c1ccc2ccccc2n1` (stereo not drawn) [compound 297], the pIC50 is above 7.00. Regarding `Cn1cnc(-c2nn(CCc3cn4ccccc4n3)c(=O)c3c(-c4ccncc4)csc23)c1` [compound 302, 5-[2-(imidazo[1,2-a]pyridin-2-yl)ethyl]-7-(1-methyl-1H-imidazol-4-yl)-3-(pyridin-4-yl)thieno[2,3-d]pyridazin-4(5H)-one], the pIC50 was above 7.00. For `O=c1c2c(-c3cccnc3)csc2cnn1CCc1ccc2ccccc2n1` [Example 39, 3-(pyridin-3-yl)-5-[2-(quinolin-2-yl)ethyl]thieno[2,3-d]pyridazin-4(5H)-one], the pIC50 was above 7.00.

For `O=c1c2c(-c3ccncc3)csc2ccn1CCc1ccc2cc(F)ccc2n1` [compound 309, 5-[2-(6-fluoroquinolin-2-yl)ethyl]-3-(pyridin-4-yl)thieno[3,2-c]pyridin-4(5H)-one], the pIC50 was above 7.00. For the compound `Cn1nccc1-c1csc2ccn(CCc3ccc4ccccc4n3)c(=O)c12` [Example 204, 3-(1-Methyl-1H-pyrazol-5-yl)-5-[2-(quinolin-2-yl)ethyl]thieno[3,2-c]pyridin-4(5)H-one hydrochloride], the pIC50 is above 7.00. Next, `O=c1c2c(C3CCNCC3)cccc2cnn1CCc1cn2ccccc2n1` [compound 354, hydrochloride]: above 7.00; `O=c1c2c(-c3ccnnc3)cccc2cnn1CCc1cn2ccccc2n1` [compound 344, 2-[2-(imidazo[1,2-a]pyridin-2-yl)ethyl]-8-(pyridazin-4-yl)phthalazin-1(2H)-one]: 6.70 to 7.00; `COc1ccc(-c2cccc3cnn(CCc4ccc5ccccc5n4)c(=O)c23)cc1OC` [Example 148, 8-(3,4-Dimethoxyphenyl)-2-[2-(quinolin-2-yl)ethyl]phthalazin-1(2H)-one]: 6.70 to 7.00.
